EC50 data for 22 molecules are collected here from patent publication US8765730B2 (Hoffmann-La Roche Inc, priority 2010, dated 2014).

pEC50: −log10 of the molar value.

The term pEC50 denotes the EC50 on a negative log10 scale, so that one unit is a factor of ten.

The experiment concerns the target T1, human GPBAR1 receptor (Homo sapiens, UniProt Q8TDU6).
T1 construct: expressed in transfected cells
T1 sequence (Q8TDU6 1-330): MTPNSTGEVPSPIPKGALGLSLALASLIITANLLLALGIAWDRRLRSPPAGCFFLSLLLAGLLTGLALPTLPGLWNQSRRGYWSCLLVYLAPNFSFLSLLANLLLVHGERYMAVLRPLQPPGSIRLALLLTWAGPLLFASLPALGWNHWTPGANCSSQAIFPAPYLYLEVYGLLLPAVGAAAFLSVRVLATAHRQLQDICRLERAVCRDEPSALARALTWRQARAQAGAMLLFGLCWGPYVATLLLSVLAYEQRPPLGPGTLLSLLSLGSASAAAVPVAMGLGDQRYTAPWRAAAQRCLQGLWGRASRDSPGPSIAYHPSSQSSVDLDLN
Briefly: functional cAMP assay in CHO-dhfr(minus) cells expressing human GPBAR1 receptors. The experiment is classed as cell-based. The following applies: human EC50, functional cAMP assay, 30 min at 30° C. The gist of the method:
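Agonist cAMP read-out: stable GPBAR1 CHO-dhfr− clone, 30 min compound exposure at 30° C following 30 min IBMX (1 mM) preincubation in Krebs Ringer bicarbonate. Time-resolved energy-transfer detection gives EC50; parental CHO cells serve as counter-screen.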
For orientation: Changes in cAMP serve as a functional read-out for many G protein-coupled receptors.
As for `COC(=O)c1ccc(-c2ccc(C(CC(=NO)c3ccnc(C)c3)c3ccccc3C)cc2)cc1` (mixture of isomers) [Example 74, 4′-[3-[Hydroxyimino]-3-(2-methyl-pyridin-4-yl)-1-o-tolyl-propyl]-biphenyl-4-carboxylic acid methyl ester], the pEC50 was 6.66.

`Cc1ccccc1[C@H](C/C(=N\O)c1cc(Cl)ncc1F)c1ccc(-c2ccc(C(=O)O)cc2)cc1` [Example 292, 4′-{(R)-3-(2-Chloro-5-fluoro-pyridin-4-yl)-3-[(E)-hydroxyimino]-1-o-tolyl-propyl}-biphenyl-4-carboxylic acid] showed a pEC50 of 8.22.

Take `COCCOCCn1cc(/C(CC(c2ccc(S(C)(=O)=O)cc2)c2ccc(Cl)cc2C)=N/O)ccc1=O` (stereo not shown) [Example 339, (E)-5-(3-(4-chloro-2-methylphenyl)-1-(hydroxyimino)-3-(4-(methylsulfonyl)phenyl)propyl)-1-(2-(2-methoxyethoxy)ethyl)pyridin-2(1H)-one]: the negative logarithm of the EC50 (pEC50) is 7.05.

As for `Cn1cc(/C(CC(c2ccc(C(=O)NC3CC3)c(F)c2)c2ccccc2Cl)=N/O)ccc1=O` (stereo not shown) [Example 233, (E)-4-(1-(2-Chlorophenyl)-3-(hydroxyimino)-3-(1-methyl-6-oxo-1,6-dihydropyridin-3-yl)propyl)-N-cyclopropyl-2-fluorobenzamide], the pEC50 was 6.73.

In the case of `Cn1cc(/C(CC(c2ccc(O)cc2)c2ccc(Cl)cc2F)=N/O)ccc1=O` (stereo not shown) [Example 318, (E)-5-(3-(4-Chloro-2-fluorophenyl)-1-(hydroxyimino)-3-(4-hydroxyphenyl)propyl)-1-methylpyridin-2(1H)-one], the pEC50 was 6.71.

For `Cc1cc(/C(CC(c2ccc(C(=O)N3CCC(F)(F)CC3)cc2)c2ccc(F)cc2F)=N/O)ccn1` (stereo not shown) [Example 437, 3-(2,4-Difluoro-phenyl)-3-[4-(4,4-difluoro-piperidine-1-carbonyl)-phenyl]-1-(2-methyl-pyridin-4-yl)-propan-1-one oxime], the pEC50 was 7.12.

On to `Cn1cc(/C(CC(c2ccccc2Cl)C2CC[N+](C)(C)CC2)=N/O)ccc1=O` (stereo not shown) [Example 198, 4-[1-(2-Chloro-phenyl)-3-[(E)-hydroxyimino]-3-(1-methyl-6-oxo-1,6-dihydro-pyridin-3-yl)-propyl]-1,1-dimethyl-piperidinium iodide], for which the negative-log EC50 (pEC50) was 5.02.

`Cc1cc(Cl)ccc1[C@H](C/C(=N\O)c1ccc(=O)n(C)c1)c1ccc(-c2ccc(C(=O)O)cc2)cc1` (single isomer, unassigned) [Example 393, (+)-4′-[1-(4-Chloro-2-methyl-phenyl)-3-[(E)-hydroxyimino]-3-(1-methyl-6-oxo-1,6-dihydro-pyridin-3-yl)-propyl]-biphenyl-4-carboxylic acid; compound with triethylamine 1:0.9] showed a pEC50 of 7.02. Compared with the last molecule, the pEC50 is 2.00 log units higher.

`Cc1cc(/C(C[C@H](c2ccc(C3CCN(S(C)(=O)=O)CC3)cc2)c2ccccc2C)=N/O)ccn1` [Example 379, (R,E)-1-(2-methylpyridin-4-yl)-3-(4-(1-(methylsulfonyl)piperidin-4-yl)phenyl)-3-o-tolylpropan-1-one oxime] had a pEC50 of 7.85.

For `O/N=C(\CC(c1ccccc1)c1ccccc1)c1cc(Cl)nc(Cl)c1` [Example 72, (E)-1-(2,6-Dichloro-pyridin-4-yl)-3,3-diphenyl-propan-1-one oxime], the pEC50 is 6.66.

Molecule `Cc1cc(/C(CC(c2ccc(-c3ccc(C(=O)O)c(F)c3)cc2)c2ccccc2C)=N/O)ccn1` (stereo not shown) [Example 131, 3-Fluoro-4′-[3-[(E)-hydroxyimino]-3-(2-methyl-pyridin-4-yl)-1-o-tolyl-propyl]-biphenyl-4-carboxylic acid] showed a negative-log EC50 (pEC50) of 7.85.

`Cc1cc(F)ccc1C(C/C(=N\O)c1ccc(=O)n(C)c1)c1ccc(-c2ccc(-c3nnn[nH]3)cc2)cc1` (stereo not shown) [Example 260, 5-{3-(4-Fluoro-2-methyl-phenyl)-1-[(E)-hydroxyimino]-3-[4′-(1H-tetrazol-5-yl)-biphenyl-4-yl]-propyl}-1-methyl-1H-pyridin-2-one] gave a negative-log EC50 (pEC50) of 7.40.

In turn, `COC(=O)c1ccc(-c2ccc(C(CC(=NO)c3ccnc(C)c3)c3ccccc3C)cc2)c(F)c1` (racemic) [Example 81, 2-Fluoro-4′-[3-[hydroxyimino]-3-(2-methyl-pyridin-4-yl)-1-o-tolyl-propyl]-biphenyl-4-carboxylic acid methyl ester] had a pEC50 of 6.53.

`Cc1cc(/C(CC(c2ccc(-c3ccc(C(=O)O)cc3)cc2)c2ncccc2C)=N/O)ccn1` (stereo not shown) [Example 117, (E)-4′-[3-[Hydroxyimino]-3-(2-methyl-pyridin-4-yl)-1-(3-methyl-pyridin-2-yl)-propyl]-biphenyl-4-carboxylic acid]: the pEC50 is 6.99.

Consider `Cc1cc(C(CC(c2ccc(C#CCCC(=O)O)cc2)c2ccccc2C)=NO)ccn1` (racemic) [Example 111, 5-{4-[3-[Hydroxyimino]-3-(2-methyl-pyridin-4-yl)-1-o-tolyl-propyl]-phenyl}-pent-4-ynoic acid], for which the negative-log EC50 (pEC50) was 7.57.

Consider `O=C(O)c1ccc(-c2ccc(C(C/C(=N\O)c3ccncc3)c3ccccc3)cc2)cc1` (stereo not shown) [Example 77, 4′-{3-[(E)-Hydroxyimino]-1-phenyl-3-pyridin-4-yl-propyl}-biphenyl-4-carboxylic acid], for which the pEC50 was 6.57. Compared with the last molecule, the pEC50 is 1.00 log units lower.

In the case of `Cc1ccccc1C(CC(=NO)c1ccncc1)c1ccc(-c2cccc(S(C)(=O)=O)c2)cc1` (racemic) [Example 32, 3-(3′-Methanesulfonyl-biphenyl-4-yl)-1-pyridin-4-yl-3-o-tolyl-propan-1-one oxime], the pEC50 was 6.59.

Regarding `CCOC(=O)C1CCN(c2ccc([C@@H](C/C(=N\O)c3ccnc(C)c3)c3ccccc3C)cc2)CC1` [Example 265, 1-{4-[(R)-3-[(E)-Hydroxyimino]-3-(2-methyl-pyridin-4-yl)-1-o-tolyl-propyl]-phenyl}-piperidine-4-carboxylic acid ethyl ester], the pEC50 was 7.92.

For `Cc1cc(Cl)ccc1C(C/C(=N\O)c1ccc(=O)n(CCC(=O)O)c1)c1ccc(S(C)(=O)=O)cc1` (stereo not shown) [Example 345, (E)-3-(5-(3-(4-Chloro-2-methylphenyl)-1-(hydroxyimino)-3-(4-(methylsulfonyl)phenyl)-propyl)-2-oxopyridin-1(2H)-yl)propanoic acid], the negative logarithm of the EC50 (pEC50) was under 5.00.

As to `Cn1cc(/C(CC(c2ccc(=O)n(C)c2)c2ccccc2Cl)=N/O)ccc1=O` (stereo not shown) [Example 250, (E)-5,5′-(1-(2-Chlorophenyl)-3-(hydroxyimino)propane-1,3-diyl)bis(1-methylpyridin-2(1H)-one)], the negative logarithm of the EC50 (pEC50) was 5.87.

Molecule `Cc1cc(/C(CC(c2ccc(-c3ccc(C(=O)O)s3)cc2)c2ccc(Cl)cc2F)=N/O)ccn1` (stereo not shown) [Example 457, 5-{4-[1-(4-Chloro-2-fluoro-phenyl)-3-[(E)-hydroxyimino]-3-(2-methyl-pyridin-4-yl)-propyl]-phenyl}-thiophene-2-carboxylic acid] gave a negative logarithm of the EC50 (pEC50) of 7.77.

Molecule `Cc1cnc(F)cc1C(CC(c1ccc(-c2ccc(C(=O)O)cc2)cc1)c1ccccc1C)=NO` (racemic) [Example 130, 4′-{3-(2-Fluoro-5-methyl-pyridin-4-yl)-3-[hydroxyimino]-1-o-tolyl-propyl}-biphenyl-4-carboxylic acid] had a pEC50 of 7.06.
